In patent US8613914B2, “Peptidomimetic sulfamide compounds and antiviral uses thereof” (Novartis AG, priority 2009, dated 2013):

Target: HCV NS3-4A serine protease (full-length NS3-4A protein) (Hepatitis C virus genotype 1a (isolate 1) (HCV), UniProt P26664)
Test: HCV NS3-4A protease assay
Type: biochemical, HCV genotype 1a
Conditions: strain HCV-1, fluorogenic peptide substrate, read-out: Protease assay Ex. 12 IC50
Procedure: The inhibitory activity of certain compounds of Table A against HCV NS3-4A serine protease is determined in a homogenous assay using the full-length NS3-4A protein (genotype 1a, strain HCV-1) and a commercially available internally-quenched fluorogenic peptide substrate as described by Taliani, M., et al. 1996 Anal. Biochem. 240:60-67, which is incorporated by reference in its entirety.

HCV NS3-4A serine protease (full-length NS3-4A protein), sequence (P26664 1027-1657): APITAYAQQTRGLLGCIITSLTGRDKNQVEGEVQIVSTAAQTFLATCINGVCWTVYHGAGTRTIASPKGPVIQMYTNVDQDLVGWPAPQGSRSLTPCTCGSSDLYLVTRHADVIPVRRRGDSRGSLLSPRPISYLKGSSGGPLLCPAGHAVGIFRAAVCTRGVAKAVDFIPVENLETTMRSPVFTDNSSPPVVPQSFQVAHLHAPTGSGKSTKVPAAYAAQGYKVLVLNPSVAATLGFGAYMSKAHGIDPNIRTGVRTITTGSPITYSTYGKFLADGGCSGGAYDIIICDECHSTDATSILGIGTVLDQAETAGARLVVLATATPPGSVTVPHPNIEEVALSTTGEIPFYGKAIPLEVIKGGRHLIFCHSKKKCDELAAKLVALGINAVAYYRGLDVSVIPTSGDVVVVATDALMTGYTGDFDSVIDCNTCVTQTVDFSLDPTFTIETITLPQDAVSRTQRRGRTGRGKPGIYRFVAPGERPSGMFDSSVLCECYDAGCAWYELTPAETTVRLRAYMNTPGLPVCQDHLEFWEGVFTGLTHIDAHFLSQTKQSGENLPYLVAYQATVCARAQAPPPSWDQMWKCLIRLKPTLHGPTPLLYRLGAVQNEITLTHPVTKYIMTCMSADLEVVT
HCV NS3-4A serine protease (full-length NS3-4A protein), sequence (P26664 1658-1711 partner): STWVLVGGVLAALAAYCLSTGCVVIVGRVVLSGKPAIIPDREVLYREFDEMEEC

First: C=C[C@@H]1C[C@]1(NC(=O)[C@@H]1C[C@@]2(CN1C(=O)[C@@H](NC(=O)[C@@H](NC(=O)[C@@H]1CCCCN1CC)C1CCCCC1)C1(C)CCOCC1)C(C)(C)C21CCC1)C(=O)NS(=O)(=O)N(CC)CC [Compound 151, (5R,8S)-7-[(2S)-2-{[(2S)-2-cyclohexyl-2-({[(2S)-1-ethylpiperidin-2-yl]carbonyl}amino)acetyl]amino}-2-(4-methyltetrahydro-2H-pyran-4-yl)acetyl]-N-[(1R,2S)-1-{[(diethylamino)sulfonyl]carbamoyl}-2-vinylcyclopropyl]-10,10-dimethyl-7-azadispiro[3.0.4.1]decane-8-carboxamide]
Second: C=C[C@@H]1C[C@]1(NC(=O)[C@@H]1C[C@@]2(CN1C(=O)[C@@H](NC(=O)[C@@H](NC(=O)[C@@H]1CCCN1CC)C1CCCCC1)C1(C)CCOCC1)C(C)(C)C21CCC1)C(=O)NS(=O)(=O)N1CCCC1 [Compound 125, (5R,8S)-7-[(2S)-2-{[(2S)-2-cyclohexyl-2-({[(2S)-1-ethylpyrrolidin-2-yl]carbonyl}amino)acetyl]amino}-2-(4-methyltetrahydro-2H-pyran-4-yl)acetyl]-10,10-dimethyl-N-{(1R,2S)-1-[(pyrrolidin-1-ylsulfonyl)carbamoyl]-2-vinylcyclopropyl}-7-azadispiro[3.0.4.1]decane-8-carboxamide]
The IC50 of the first is higher: 2 nM for the first, less than 0.3 nM for the second.

First: C=C[C@@H]1C[C@]1(NC(=O)[C@@H]1C[C@@]2(CN1C(=O)[C@@H](NC(=O)[C@@H](NC(=O)[C@@H]1CCCCN1C(C)C)C1CCCCC1)C(C)(C)C)C(C)(C)C21CCC1)C(=O)NS(=O)(=O)N(CC)CC [Compound 174, (5R,8S)-7-[(2S)-2-{[(2S)-2-cyclohexyl-2-({[(2S)-1-isopropylpiperidin-2-yl]carbonyl}amino)acetyl]amino}-3,3-dimethylbutanoyl]-N-[(1R,2S)-1-{[(diethylamino)sulfonyl]carbamoyl}-2-vinylcyclopropyl]-10,10-dimethyl-7-azadispiro[3.0.4.1]decane-8-carboxamide]
Second: C=C[C@@H]1C[C@]1(NC(=O)[C@@H]1C[C@@]2(CN1C(=O)[C@@H](NC(=O)[C@@H](NC(=O)[C@@H]1CCCCN1C)C1CCCCC1)C(C)(C)C)C(C)(C)C21CCC1)C(=O)NS(=O)(=O)N(CC)CC [Compound 118, (5R,8S)-7-[(2S)-2-{[(2S)-2-cyclohexyl-2-({[(2S)-1-methylpiperidin-2-yl]carbonyl}amino)acetyl]amino}-3,3-dimethylbutanoyl]-N-[(1R,2S)-1-{[(diethylamino)sulfonyl]carbamoyl}-2-vinylcyclopropyl]-10,10-dimethyl-7-azadispiro[3.0.4.1]decane-8-carboxamide]
The IC50 of the first is 7.5-fold lower: 0.6 nM for the first, 4.5 nM for the second.

Going from `CC[C@@H]1C[C@]1(NC(=O)[C@@H]1C[C@@]2(CN1C(=O)[C@@H](NC(=O)[C@@H](NC(=O)[C@@H]1CCCCN1CC)C1CCCCC1)C(C)(C)C)C(C)(C)C21CCC1)C(=O)NS(=O)(=O)N1CCCC1` [Compound 87, (5R,8S)-7-[(2S)-2-{[(2S)-2-cyclohexyl-2-({[(2S)-1-ethylpiperidin-2-yl]carbonyl}amino)acetyl]amino}-3,3-dimethylbutanoyl]-N-{(1R,2R)-2-ethyl-1-[(pyrrolidin-1-ylsulfonyl)carbamoyl]cyclopropyl}-10,10-dimethyl-7-azadispiro[3.0.4.1]decane-8-carboxamide] to `CC[C@@H]1C[C@]1(NC(=O)[C@@H]1C[C@@]2(CN1C(=O)[C@@H](NC(=O)[C@@H](NC(=O)[C@@H]1CCCN1C(C)C)C1CCCCC1)C(C)(C)C)C(C)(C)C21CCC1)C(=O)NS(=O)(=O)N1CCCC1` [Compound 116, (5R,8S)-7-[(2S)-2-{[(2S)-2-cyclohexyl-2-({[(2S)-1-isopropylpyrrolidin-2-yl]carbonyl}amino)acetyl]amino}-3,3-dimethylbutanoyl]-N-{(1R,2R)-2-ethyl-1-[(pyrrolidin-1-ylsulfonyl)carbamoyl]cyclopropyl}-10,10-dimethyl-7-azadispiro[3.0.4.1]decane-8-carboxamide], the IC50 falls from 7 nM to 4.5 nM (1.6-fold). The second is the more potent here.

Compared with `C=C[C@@H]1C[C@]1(NC(=O)[C@@H]1C[C@@]2(CN1C(=O)[C@@H](NC(=O)[C@@H](NC(=O)[C@@H]1CCCCN1C(C)C)C1CCCCC1)C(C)C)C(C)(C)C21CCC1)C(=O)NS(=O)(=O)N(CC)CC` [Compound 132, (5R,8S)-7-[(2S)-2-{[(2S)-2-cyclohexyl-2-({[(2S)-1-isopropylpiperidin-2-yl]carbonyl}amino)acetyl]amino}-3-methylbutanoyl]-N-[(1R,2S)-1-{[(diethylamino)sulfonyl]carbamoyl}-2-vinylcyclopropyl]-10,10-dimethyl-7-azadispiro[3.0.4.1]decane-8-carboxamide], `C=C[C@@H]1C[C@]1(NC(=O)[C@@H]1C[C@@]2(CN1C(=O)[C@@H](NC(=O)[C@@H](NC(=O)[C@@H]1CCCCN1CC)C1CCCCC1)C(C)(C)C)C(C)(C)C21CCC1)C(=O)NS(=O)(=O)N(CC)CC` [Compound 77, (5R,8S)-7-[(2S)-2-{[(2S)-2-cyclohexyl-2-({[(2S)-1-ethylpiperidin-2-yl]carbonyl}amino)acetyl]amino}-3,3-dimethylbutanoyl]-N-[(1R,2S)-1-{[(diethylamino)sulfonyl]carbamoyl}-2-vinylcyclopropyl]-10,10-dimethyl-7-azadispiro[3.0.4.1]decane-8-carboxamide] is 3.1-fold lower in IC50: 2.8 nM for the first, 0.9 nM for the second.

Compared with `C=C[C@@H]1C[C@]1(NC(=O)[C@@H]1C[C@@]2(CN1C(=O)[C@@H](NC(=O)[C@@H](N1CCCC1=O)C(C)(C)C)C(C)(C)C)C(C)(C)C21CCC1)C(=O)NS(=O)(=O)N1CCCC1` [Compound 9, (5R,8S)-7-[(2S)-2-{[(2S)-3,3-dimethyl-2-(2-oxopyrrolidin-1-yl)butanoyl]amino}-3,3-dimethylbutanoyl]-10,10-dimethyl-N-{(1R,2S)-1-[(pyrrolidin-1-ylsulfonyl)carbamoyl]-2-vinylcyclopropyl}-7-azadispiro[3.0.4.1]decane-8-carboxamide], `C=C[C@@H]1C[C@]1(NC(=O)[C@@H]1C[C@@]2(CN1C(=O)[C@@H](NC(=O)OC(C)(C)C)C(C)(C)C)C(C)(C)C21CCC1)C(=O)NS(=O)(=O)N1CCCC1` [Compound 1, tert-butyl [(1S)-1-{[(5R,8S)-10,10-dimethyl-8-({(1R,2S)-1-[(pyrrolidin-1-ylsulfonyl)carbamoyl]-2-vinylcyclopropyl}carbamoyl)-7-azadispiro[3.0.4.1]dec-7-yl]carbonyl}-2,2-dimethylpropyl]carbamate] is 4-fold higher in IC50: 100 nM for the first, 400 nM for the second. The first is the more potent here.

Compared with `C=C[C@@H]1C[C@]1(NC(=O)[C@@H]1C[C@@]2(CN1C(=O)[C@@H](NC(=O)[C@@H](NC(=O)C1CN(C(C)C)C1)C(C)(C)C)C(C)(C)C)C(C)(C)C21CCC1)C(=O)NS(=O)(=O)N1CCCC1` [Compound 23, (5R,8S)-7-[(2S)-2-{[(2S)-2-{[(1-isopropylazetidin-3-yl)carbonyl]amino}-3,3-dimethylbutanoyl]amino}-3,3-dimethylbutanoyl]-10,10-dimethyl-N-{(1R,2S)-1-[(pyrrolidin-1-ylsulfonyl)carbamoyl]-2-vinylcyclopropyl}-7-azadispiro[3.0.4.1]decane-8-carboxamide], `C=C[C@@H]1C[C@]1(NC(=O)[C@@H]1C[C@@]2(CN1C(=O)[C@@H](NC(=O)[C@@H](NC(=O)[C@@H]1CCCCN1C(C)C)C1CCOCC1)C(C)(C)C)C(C)(C)C21CCC1)C(=O)NS(=O)(=O)N1CCCC1` [Compound 44, (5R,8S)-7-[(2S)-2-{[(2S)-2-({[(2S)-1-isopropylpiperidin-2-yl]carbonyl}amino)-2-(tetrahydro-2H-pyran-4-yl)acetyl]amino}-3,3-dimethylbutanoyl]-10,10-dimethyl-N-{(1R,2S)-1-[(pyrrolidin-1-ylsulfonyl)carbamoyl]-2-vinylcyclopropyl}-7-azadispiro[3.0.4.1]decane-8-carboxamide] is 27-fold lower in IC50: 400 nM for the first, 15 nM for the second. The second is the more potent here.

Going from `C=C[C@@H]1C[C@]1(NC(=O)[C@@H]1C[C@@]2(CN1C(=O)[C@@H](NC(=O)[C@@H](NC(=O)[C@H]1CCCCN1C)C1CCCCC1)C(C)(C)C)C(C)(C)C21CCC1)C(=O)NS(=O)(=O)N1CCCC1` [Compound 48, (5R,8S)-7-[(2S)-2-{[(2S)-2-cyclohexyl-2-({[(2R)-1-methylpiperidin-2-yl]carbonyl}amino)acetyl]amino}-3,3-dimethylbutanoyl]-10,10-dimethyl-N-{(1R,2S)-1-[(pyrrolidin-1-ylsulfonyl)carbamoyl]-2-vinylcyclopropyl}-7-azadispiro[3.0.4.1]decane-8-carboxamide] to `C=C[C@@H]1C[C@]1(NC(=O)[C@@H]1C[C@@]2(CN1C(=O)[C@@H](NC(=O)[C@@H](NC(=O)c1cnon1)C1CCCCC1)C(C)(C)C)C(C)(C)C21CCC1)C(=O)NS(=O)(=O)N1CCCC1` [Compound 201, (5R,8S)-7-[(2S)-2-({cyclohexyl[(1,2,5-oxadiazol-3-ylcarbonyl)amino]acetyl}amino)-3,3-dimethylbutanoyl]-10,10-dimethyl-N-{(1R,2S)-1-[(pyrrolidin-1-ylsulfonyl)carbamoyl]-2-vinylcyclopropyl}-7-azadispiro[3.0.4.1]decane-8-carboxamide], the IC50 rises from 0.9 nM to 35 nM (39-fold).

`CC[C@@H]1C[C@]1(NC(=O)[C@@H]1C[C@@]2(CN1C(=O)[C@@H](NC(=O)[C@@H](NC(=O)[C@@H]1CCCCN1CC)C1CCCCC1)C(C)(C)C)C(C)(C)C21CCC1)C(=O)NS(=O)(=O)N(CC)CC` [Compound 86, (5R,8S)-7-[(2S)-2-{[(2S)-2-cyclohexyl-2-({[(2S)-1-ethylpiperidin-2-yl]carbonyl}amino)acetyl]amino}-3,3-dimethylbutanoyl]-N-[(1R,2R)-1-{[(diethylamino)sulfonyl]carbamoyl}-2-ethylcyclopropyl]-10,10-dimethyl-7-azadispiro[3.0.4.1]decane-8-carboxamide] was tested, and the IC50 was 4.5 nM.
